Results as given in US10966962B2, “Method for treating neurodegenerative diseases” (THE BOARD OF TRUSTEES OF THE LELAND STANFORD JUNIOR …, priority 2014, dated 2021).

Assays:
ALS transgenic mice = experiment: Wheel-running test in ALS transgenic animals; type: in vivo; settings: 25 mg/kg orally 3 times a week for 4 weeks from 9 weeks of age
Experimental: ALS transgenic mice were orally treated 3 times a week for 4 weeks with 0.5% methylcellulose or ZLN005 (Sigma) at 25 mg/kg in 0.5% methylcellulose, starting at 9 weeks of age. A wheel-running test was performed similarly to that described in Example 8. The animals started training at 13 weeks of age for 1.5 weeks of training on a treadmill at a constant speed of 10 rpm and then for 1.5 weeks of training at an accelerating speed from 5-15 rpm. After the training period at 14.5 and 16 weeks of age, animals were tested for motor performance at a constant speed and at an accelerating speed, respectively. […] Unpaired t-tests were used for statistical analyses.

Ppargc1a = tested on: Ppargc1a
Experimental: To induce symptoms of PD, MPTP (20 mg/kg) was administered intraperitoneally in sterile PBS 4 times at 2-hour intervals on day 1. […] Log-rank test was used for statistical analysis.
Ppargc1a, an inducer of mitochondrial biogenesis, is widely expressed in cells throughout the body.
For protein expression studies, animals were sacrificed on Day 4, 24 hours after the 3rd oral dosage of ZLN005 and PBS-perfused brain tissues were digested with Collagenase IV, processed for microglia isolation by flow cytometry (Ginhoux et al Science, 330:841-5, 2010), and immunoblot analysis of Ppargc1a expression.

[1] = tested on: CD45hi CD11b+F4/80+brain perivascular macrophages; experiment: Frequency of brain perivascular macrophages in ALS transgenic animals; type: in vivo, mice; settings: 25 mg/kg orally 3 times a week for 8 weeks, 13 weeks of age
Experimental: ALS transgenic animals were orally treated 3 times a week for 8 weeks with 0.5% methylcellulose or ZLN005 (Sigma) at 25 mg/kg in 0.5% methylcellulose, starting at 5 weeks of age. For measuring the frequency of CD45hi CD11b+F4/80+brain perivascular macrophages, ALS-Ctrl (n=13), ALS-ZLN (n=17), and WT animals (n=17) were sacrificed at 13 weeks of age. PBS-perfused brain tissues of sacrificed animals were digested with Collagenase IV and processed for flow cytometry. The results are summarized in FIG. 19; Y-axis represents % of brain perivascular macrophages among total brain immune cells in the brain. […] ANOVA was used for statistical analysis.

MPTP-treated animals = experiment: Nest-building test in MPTP model of PD; type: in vivo, mice; settings: one dose 25 mg/kg
Experimental: Impaired nest-building skill has been widely used as one of the most reliable indication of motor dysfunction in the MPTP model of […] et al, Behav Brain Res, 125:109-25, 2001). In this test, animals are given cotton pads to be used as nestling, and are tested for their abilities to tear off the cotton pads into small pieces to build a nest; these abilities require fine motor coordination. Animals with microglia-specific deletion of Ppargc1a and controls were generated as described in Example 1. […] Control animals received a similar volume of PBS. Immediately after the last dosage of MPTP, each animal was put in one cage and given two cotton pads to be used in nestling; the appearance of the cotton pads was evaluated 16 hours later. The results are shown in FIG. 7 as weights of shredded nestlets (n=9-10 animals per treatment group). […] MPTP-ZLN animals generated more cotton-debris in comparison to the MPTP-Ctrl group. […] Unpaired t-tests were used for statistical analyses.

microglia [2] = experiment: Microglia IL1 and TNFα in 5XFAD AD transgenic animals; type: in vivo, mice; settings: 25 mg/kg orally 3 times a week for 4 weeks, 7 weeks of age
Text: 5XFAD transgenic mice, which are model of familial AD, were purchased from Jackson Laboratories (Oakley et al J Neurosci. 26:10129-40, 2006). These animals overexpress both mutant human APP(695) with the Swedish (K670N, M671L), Florida (I716V), and London (V7171) Familial Alzheimer's Disease (FAD) mutations and human PS1 harboring two FAD mutations, M146L and L286V. These transgenic mice rapidly recapitulate major features of amyloid pathology in AD by 8-10 weeks of age. Microglia abnormalities and neuroinflammation are also pronounced within this time window. Subsequently, neurodegeneration and behavioral dysfunction that mimic cognitive and psychiatric symptoms of human AD begin and are pronounced by 4-5 months of age. AD transgenic animals were orally treated 3 times a week for 4 weeks with 0.5% methylcellulose or ZLN005 (Sigma) at 25 mg/kg in 0.5% methylcellulose, starting at 3 weeks of age. For studies of microglia, 5[…]=10), 5XFAD-Ctrl (n=8) and WT (n=11) animals were sacrificed at 7 weeks of age. PBS-perfused brain tissues of sacrificed animals were digested with Collagenase IV and processed for flow cytometry. Brain microglia were phenotyped with antibodies directed against mouse IL1 and TNFα (Biolegend) for flow cytometric acquisition (LSRII, BD) and analysis (FlowJo). The results are summarized in FIG. 12; Y-axis represents % of microglia that express IL1 (A) and TNFα (B). […]

microglia [3] = experiment: Microglia metabolic phenotype in 5XFAD AD transgenic animals (MitotrackerGreen, 2-NBDG); type: in vivo, mice; settings: 25 mg/kg orally 3 times a week for 4 weeks, 7 weeks of age
Experimental: AD transgenic animals were orally treated 3 times a week for 4 weeks with 0.5% methylcellulose or ZLN005 (Sigma) at 25 mg/kg in 0.5% methylcellulose, starting at 3 weeks of age. For studies of microglia, 5[…]=10) and 5XFAD-Ctrl (n=8) animals and WT animals (n=11) were sacrificed at 7 weeks of age. PBS-perfused brain tissues of sacrificed animals were digested with Collagenase IV and processed for flow cytometry. Brain microglia were phenotyped with 2-NBDG and MitotrackerGreen (Invitrogen) for flow cytometric acquisition (LSRII, BD) and analysis (FlowJo). The results are summarized in FIG. 13; Y-axis represents % of microglia that highly expressed MitotrackerGreen (A) and had taken up 2-NBDG (B). Mitochondrial respiration and glycolysis are two key energy generating pathways in living cells. In immune cells like microglia, inflammatory transformation is associated with upregulation of glucose utilization and depression of mitochondrial biogenesis and function. […] ANOVA was used for statistical analyses.

[4] = tested on: dopaminergic neurons in the substantia nigra; experiment: Immunohistochemical analysis of dopaminergic neurons in MPTP-treated animals; type: in vivo, mice; settings: 25 mg/kg orally once a day for 7 days, Day 8
Experimental: For protein expression studies, animals were sacrificed on Day 8, 24 hours after the 7th oral dosage of ZLN005, and paraformaldehyde-perfused brain tissues were processed for immunohistochemical analysis of dopaminergic neurons in the substantia nigra. The brown staining represents tyrosine hydroxylase expression in dopaminergic neurons of the substantia nigra.

## CC(C)(C)c1ccc(-c2nc3ccccc3[nH]2)cc1 [ZLN005, 2-(4-tert-butylphenyl)-1H-benzimidazole]
ALS transgenic mice; accelerating speed 5-15 rpm, 16 weeks of age
  latency to fall: 243.7 s
ALS transgenic mice; constant speed 10 rpm, 14.5 weeks of age
  latency to fall: 296.3 s
Ppargc1a; MPTP-treated animals, 25 mg/kg orally, 3 doses, Day 4
  Ppargc1a protein expression in microglia: enhanced Ppargc1a protein expression in microglia
Ppargc1a; mouse, in vivo, po, 25 mg/kg
  blood-brain barrier penetration: penetrated the blood-brain barrier
[1]
  percentage of brain perivascular macrophages among total brain immune cells: decreased
MPTP-treated animals; MPTP-treated Cre animals
  nest-building, weights of shredded nestlets (fine motor skills): present only in FF animals but not in Cre animals
MPTP-treated animals; MPTP-treated FF animals, evaluated 16 hours later, vs MPTP-Ctrl
  nest-building, weights of shredded nestlets (fine motor skills): marked improvement in their fine motor skills
Microglia [2]
  IL1 production in microglia: decreased
  TNFα production in microglia: decreased
Microglia [3]
  glucose uptake in microglia (2-NBDG): decreased
  mitochondrial mass in microglia (Mitotracker Green): enhanced
[4]
  depletion of dopaminergic neurons of the substantia nigra (tyrosine hydroxylase staining): reversed
